Measured values published in patent publication US11628164B2, “Composition containing salsolinol for treating liver cancer” (SUNGSHIN WOMEN'S UNIVERSITY R&DB FOUNDATION, priority 2020, dated 2023).

Assays:
SK-Hep1 [1] = experiment: Colony formation experiment; format: cell-based, human
Protocol: Among the human-derived liver cancer cell lines, the SK-Hep1, which is a liver cancer cell lines, is dispensed into 96-wells so as to have a concentration of 1×10^4 cells, and then, the SK-Hep1 is treated once every two or three days so that the salsolinol has a concentration of 25 μM or 50 μM. The salsolinol-treated the SK-Hep1 is further cultured for 3 days under the above-mentioned conditions. After that, the SK-Hep1 is fixed with 4% formaldehyde, stained with crystal violet for 2 hours, and after extraction with an acetic acid, the absorbance (570 nm) is measured. After culturing the SK-Hep1 cells at 1×10^4 cells/well for 24 hours, the SK-Hep1 is treated three times at 48 hour intervals with the salsolinol so as to have a concentration of 25 μM or 50 μM, and then the degree of colony formation is checked (refer to FIG. 2). The colony formation experiment for the SK-Hep11 is repeated a total of 4 times, the statistic process is performed, and comparison and analysis are performed. As a result of the experiment, in the case of being treated with the salsolinol having a concentration of 25 μM, it is confirmed that the colony formation ability of the SK-Hep1 is decreased to a level of 50% compared with the SK-Hep1 not treated with the salsolinol. […]

[2] = system: STAT3, pSTAT3, PCNA, 15-PGDH, p53 in SK-Hep1; experiment: Western blotting of tumor-related genes in SK-Hep1; format: cell-based, human
Protocol: (§1) 5×10^5 cells of Human-derived liver cancer cell lines SK-Hep1 and SNU387 are cultured in a 60 mm culture vessel, the cells are lysed, and proteins are separated through electrophoresis. And after that, western blotting analysis is performed by using a specific antibody. After treatment of the SK-Hep1 and the SNU387 with the salsolinol at different times and concentrations, the cells are washed with PBS, and the cells are scraped off with a scraper. The cells are lysed in a lysis buffer for 1 hour, and after that, centrifuge separation is performed at 13,000 rpm for 15 minutes at 4° C., and only the supernatant is extracted. 20 μg of protein contained in the supernatant is electrophoresed on SDS-polyacrylamide gel, and after that, transferred to a PVDF membrane for 2 hours. The sample reacts with antibodies pSTAT3(#9145), STAT3(#9132), PCNA(#2586), 15-PGDH(cayman No. 160615), p53(sc-126), p53(sc-99), pAKT(#9271), AKT(#9272), Annexin A2(#8235), and GAPDH(sc-32233). The protein is detected by using an enhanced chemiluminascence (ECL) detection solution. As a result of the above-described experiment, it is confirmed that the activity of cells in the liver cancer cell lines SK-Hep1 is decreased by the salsolinol, and particularly, the specificity for the liver cancer cell lines is confirmed. In order to check the correlation between the decrease in the activity of cells of the liver cancer cell lines by the salsolinol and the gene expression, the SK-Hep1 which is a liver cancer cell line and the SNU387 which is a liver cancer cell line are cultured, and the samples are treated with 25 μM of salsolinol d for 72 hours. After the treatment, changes in the expression levels of tumor-related genes such as STAT3, pSTAT3, PCNA, 15-PGDH, and p53 are checked (refer to FIG. 4).

[3] = system: STAT3, pSTAT3, PCNA, 15-PGDH, p53 in SNU387; experiment: Western blotting of tumor-related genes in SNU387; format: cell-based, human; conditions: SNU387, 25 μM salsolinol, 72 hours
Protocol: as §1

[4] = system: Ki-67, 8-OHdG in liver tissue; experiment: Immunofluorescence staining of liver tissue (Ki-67, 8-OHdG); format: in vivo, C57BL/6 mouse
Protocol: The salsolinol (200 mg/kg) is administered for 6 months through intraperitoneal injection three times per week from the time when the DEN-induced liver cancer mouse model (male) became 7 weeks of age. After the mouse is sacrificed, the experiment is performed.
In the paraffin section slide requested to be manufactured by NORTHUS Co., Ltd., paraffin is removed by using xylene (Duksan, Gyeonggi, Korea). And, after a hydration process with low concentration ethanol (100, 90, 80, and 70% ethanol) at a high concentration, the slide is rinsed twice with running water. Since formaldehyde forms a cross-link between proteins to prevent a primary antibody from binding to the epitope of the antigen, the cross-link is removed by using an antigen retrieval reagent (sigma). After washing the slide thoroughly with running water, and dropping 2% triton for nuclear staining, the slide is left for 45 minutes. After washing the slide thoroughly with running water, blocking proceeds for 1 hour with a PBS solution containing 3% BSA to prevent non-specific binding. Then, after dropping a diluted PBS solution containing 3% BSA diluted with a primary antibody (8-OHdG, Ki-67) (1:500) on the slide, the slide is left at 4° C. for one day. After washing the slide with PBS and dropping a diluted secondary antibody (1:2000) on the slide, the slide is left at 4° C. for 1 hour. After washing the slide with PBS, staining with DAPI (1:200), and dropping 2-3 drops of mounting solution (sigma), the slide is covered with a slide cover. After about a day, the degree of fluorescence staining is checked by using a confocal microscope.
Tumor-related genes Ki-67 and 8-OHdG expressed in the liver tissue of the DEN-induced liver cancer mouse model (male, DEN), the DEN-induced liver cancer mouse model (male, DEN+SAL) administered with the salsolinol, and the normal mouse (male, SAL) administered with the salsolinol are analyzed by using an immunofluorescence measurement method (refer to FIGS. 10 and 11).

SK-Hep1 [5] = conditions: cited from earlier work
[6] = SK-Hep1, 25 μM salsolinol, 72 hours
[7] = normal mouse administered with salsolinol (SAL)
[8] = SK-Hep1, from KR10-2019-0129765

SMILES: CC1NCCc2cc(O)c(O)cc21 (centres unmarked) [salsolinol, 6,7-dihydroxy-1-methyl-1,2,3,4-tetrahydroisoquinoline]
- colony formation ability compared with untreated SK-Hep1 (SK-Hep1 [1]; 25 μM salsolinol): 50%
- colony formation ability compared with untreated SK-Hep1 (SK-Hep1 [1]; 50 μM salsolinol): 20%
- 15-PGDH expression level [2, 6]: increased
- PCNA expression level [2, 6]: slightly decreased
- STAT3 expression level [2, 6]: remains constant
- p53 expression level [2, 6]: increased
- pSTAT3 expression level [2, 6]: decreased
- phosphorylation of STAT3 over time ([2]; male-derived liver cancer cell lines, time course after treatment): rapidly increased initially, but it is rapidly decreased after 24 hours
- 15-PGDH expression level [3]: remains constant
- PCNA expression level [3]: rather increased
- STAT3 expression level [3]: remains constant
- p53 expression level [3]: not changed
- pSTAT3 expression level [3]: not decreased
- Ki-67 expression ([4]; DEN+SAL liver): not confirmed
- 8-OHdG expression ([4]; DEN+SAL liver tissue): at a low level
- 8-OHdG expression [4, 7]: at a low level
- Ki-67 expression [4, 7]: not confirmed
- STAT3 phosphorylation (SK-Hep1 [5]; SK-Hep1, from KR10-2019-0129765, 24 hours): increases signal transducer and transcription 3 (STAT3) phosphorylation
- HO-1 expression (SK-Hep1 [5]; [8]): increased
- cytotoxicity (SK-Hep1 [5]; [8]): exhibits cytotoxicity
